Structures can show the parent of a compound that is named as a salt. Where two headings read alike, the source gives them in different places.

These results are taken from patent US20060057069A1, “Detection of protein expression in vivo using fluorescent puromycin conjugates” (CALIFORNIA INSTITUTE OF TECHNOLOGY, priority 2004, published 2006).

In data set [1] the test system is globin translation. The following applies: previously shown, ref [14]; read-out: IC50 (in vitro translation inhibition) from reference [14]; cited from earlier work.
The test system of data set [2] is cultured hippocampal neurons. Put plainly: F2P (fluorescein-dC-puromycin) reporter of endogenous protein synthesis in cultured hippocampal neurons. In kind it is cell-based, rat. The following applies: for effect of co-application on basal F2P fluorescence in dendrites: co-application with F2P. Here is the method:
Dissociated hippocampal neurons were prepared and maintained as previously described. Briefly, hippocampi from postnatal day 2 Sprague-Dawley rat pups were enzymatically and mechanically dissociated and plated into poly-lysine coated glass-bottom petri dishes (Mattek). Neurons were maintained for 14-21 days at 37° C. in growth medium (Neurobasal A supplemented with B27 and Glutamax-1, Invitrogen).
All images were acquired with an Olympus IX-70 confocal laser scanning microscope running Fluoview software (Olympus America, Inc). GFP, Alexa 488, and F2P were excited with the 488 nm line of an argon ion laser, and emitted light was collected between 510 and 550 nm. Alexa 568 was excited with the 568 nm line of a krypton ion laser, and emitted light was collected above 600 nm. In experiments where two channels were acquired simultaneously, settings were chosen to ensure no signal bleed-through between channels. For between-dish comparisons on a given day, all images were acquired at the same settings, without knowledge of the experimental condition during image acquisition. All post-acquisition processing and analysis was carried out with ImageJ (NIH) and Matlab (The MathWorks, Inc.). To facilitate the analysis of fluorescence signal as a function of distance from the soma, dendrites were linearized and extracted from the full-frame image using a modified version of the Straighten plugin for ImageJ.
To determine whether D1/D5 receptors activate the translation of endogenous mRNAs in living neurons, fluorescein-dC-puromycin (F2P), a novel protein synthesis reporter based on the peptidyl transferase inhibitor puromycin [35] was used. Because puromycin is a structural analog of an amino-acyl tRNA molecule, it enters ribosomes actively engaged in translation where it becomes covalently attached to the carboxy-terminus of nascent proteins through a peptide linkage. Initially, whether F2P can serve as a protein synthesis reporter in cultured hippocampal neurons was examined (FIGS. 11A, B). […] (FIG. 11B).

Data set [3] relates to 16610D9 thymocyte cells. Put plainly: Detection of protein synthesis events in live cells by flow cytometry (fluorescence labeling). In kind it is cell-based. The procedure:
16610D9 cells (0.5 million mL^−1) were combined with the various puromycin conjugates and control molecules resuspended in the minimum volume of PBS or media as described above. After a 24 h incubation, the cells were washed twice in 2 mL PBS+4% FCS and resuspended in PBS+4% FCS supplemented with 2% formaldehyde followed by incubation at 37° C. for 10 min or used directly after washing for immediate flow cytometry analysis.
In order to analyze the activity of puromycin conjugates in vivo, choosing of both an appropriate cell line and an appropriate quantitation and detection scheme was needed. While microscopy is a powerful means to analyze individual cells and small sections of tissue, performance of experiments where thousands to millions of cells could be examined for protein labeling was desired. Therefore, flow cytometry was chosen as the primary means to analyze uptake and incorporation of the conjugates. In addition to providing a quantitative measure of fluorescence and cell size, flow cytometry methods enable live cells and dead cells to be readily distinguished.
A general note: A flow cytometer gives signals particle by particle.

Data set [4] deals with globin translation. Put plainly: In vitro potency determination: inhibition of globin mRNA translation in rabbit reticulocyte lysate. In kind it is biochemical. The following applies: read-out: IC50: concentration of puromycin conjugate required for 50% inhibition of globin translation, 30° C. 60 min, standard error <5% in replicates.
Method: Translation reactions containing [^35S]Met were mixed in batch on ice and added in aliquots to microcentrifuge tubes containing an appropriate amount of puromycin conjugate (or control molecule) dried in vacuo. […] Inhibitor, lysate preparation (including all components except template), and globin mRNA were mixed simultaneously and incubated at 30° C. for 60 min. Each reaction (2 μL) was combined with 8 μL of tricine loading buffer (80 mM Tris-Cl (pH 6.8), 200 mM DTT, 24% (v/v) glycerol, 8% sodium dodecyl sulfate (SDS), and 0.02% (w/v) Coomassie blue G-250), heated to 90° C. for 5 min, and applied entirely to a 4% stacking portion of a 15% tricine-SDS-polyacrylamide gel containing 20% (v/v) glycerol [29] (30 mA for 1 h, 30 min). Gels were fixed in 10% acetic acid (v/v) and 50% (v/v) methanol, dried, exposed overnight on a Phosphorlmager screen, and analyzed using a Storm Phosphorlmager (Molecular Dynamics).
Initial analysis began by examining the activity of each of the conjugates in vitro for their ability to inhibit protein translation.
Data set [5] has as its system 16610D9 thymocyte cells. Put plainly: Western analysis of treated cells with anti-fluorescein antibody. The following applies: conjugates 25 μM; anisomycin 250 ng/mL. In kind it is cell-based, mouse. The procedure: Live cell number was determined using trypan blue exclusion dye and each sample was adjusted to contain an equal number of live cells. Cell pellets were resuspended in 2× lysis buffer (100 mM β-glycerophosphate, 3 mM EGTA, 2 mM EDTA, 0.2 mM sodium-orthovanadate, 2 mM DTT, 20 μg/ml aprotinin, 20 μg/ml leupeptin, 50 μg/ml trypsin inhibitor, and 4 μg/ml pepstatin, and 1% Triton X-100) and incubated on ice for 30 min. Cell debris was removed by centrifugation at 20,000×g for 30 min. Cell lysate was combined with SDS loading buffer (0.12 M Tris-Cl (pH 6.8), 20% glycerol, 4% (w/v) SDS, 2% (v/v) β-mercaptoethanol, and 0.001% bromophenol blue) and heated at 90° C. for 10 min. Samples were applied entirely to a 4% stacking portion of a 10% glycine-SDS-polyacrylamide gel (30 mA for 1 h, 30 min). Protein was transferred using standard Western transfer techniques and the blot was probed with an anti-fluorescein antibody followed by an anti-rabbit-horseradish peroxidase conjugate (Pierce chemicals). The chemiluminescence reaction was carried out using the ECL PLUS Western Blotting […] System (Amersham BioSciences).
Action of puromycin and the conjugates should result in proteins bearing these compounds at their C-terminus in vivo. Western blot analysis of cellular lysates was chosen to examine if incorporation occurred in vivo and compare the resulting signal with the control conjugates. […]

The test system of a further data set is D1/D5 receptors. Put plainly: Miniature excitatory postsynaptic currents (mEPSCs) in cultured hippocampal neurons. In kind it is cell-based, rat. Particulars: anisomycin with DHX; PKI6-22 in the recording pipette. The text has this:
Given the increase in the total and synaptic GluRl population, the effects of dopamine agonists on synaptic transmission was examined. To monitor synaptic strength before and after exposure to a dopamine agonist, miniature excitatory postsynaptic currents (mEPSCs) in cultured hippocampal neurons were examined.

A further data set relates to dopamine D1/D5 receptor. Kind of data set: GFP protein synthesis reporter imaging in cultured hippocampal neurons. In kind it is cell-based, rat. The following applies: co-application with SKF.
Data set [6] deals with 16610D9 cells infected with MIG. Kind of data set: Killing of MIG-infected (no PAC resistance) cells, flow cytometry. In kind it is cell-based, mouse. The following applies: long exposure, 48 h incubation. The procedure:
(§1) The PAC gene was cloned into MIG using BgII and EcoRI restriction sites to yield MIGPAC. 293T-HEK fibroblasts (American Tissue Culture Collection) were co-transfected with pECL-Eco [30] and MIG or MIGPAC by calcium phosphate precipitation. After 12 hours, the precipitate was removed, cells were washed once with PBS, and 4 mL of fresh complete Dulbecco's Modified Eagle Medium (DMEM) supplemented with 10% fetal calf serum (FCS). Viral supernatant was removed 24 hours later and used in infection of 16610D9 cells. One million D9 cells were spin-infected with 0.4 mL of viral supernatant suplemented with 5 μg/ml Polybrene (Sigma-Aldrich).
(§2) 16610D9 cells infected with either MIG of MIGPAC were cultured in RPMI media with 10% FBS and grown at […] in a humidified atmosphere with 5% CO2. For each experiment, 16610D9 cells (0.25×10^6/well) were added to 24-well microtiter plates along with puromycin, puromycin-conjugate, and control molecules dissolved in the minimum amount of either media or PBS. After a 48 h incubation, the cells were washed twice in 2 mL PBS+4% FCS and resuspended in PBS+4% FCS supplemented with 2% formaldehyde along with incubation at 37° C. for 10 min. […]
(§3) Foreign genes can be inserted into D9 cells by infection with a viral vector (see Experimental Procedures). […] MIG expresses GFP so that infection efficiency can be monitored by GFP fluorescence (FIG. 7A). […]

Data set [7] deals with 16610D9 cells infected with MIGPAC. Put plainly: Enrichment of GFP(+) MIGPAC-infected (PAC-expressing) cells, flow cytometry. In kind it is cell-based, mouse. Particulars: 48 h; 4.3% GFP-positive before treatment. Here is the method: as §1, §2, §3
[8] abbreviates: 24 h incubation, conjugates at 50 μM, live-cell gate.

Method for dopamine D1/D5 receptor: Dissociated hippocampal neurons were prepared and maintained as previously described [34]. Briefly, hippocampi from postnatal day 2 Sprague-Dawley rat pups were enzymatically and mechanically dissociated and plated into poly-lysine coated glass-bottom petri dishes (Mattek). Neurons were maintained for 14-21 days at 37° C. in growth medium (Neurobasal A supplemented with B27 and Glutamax-1, Invitrogen).
All images were acquired with an Olympus IX-70 confocal laser scanning microscope running Fluoview software (Olympus America, Inc). GFP, Alexa 488, and F2P were excited with the 488 nm line of an argon ion laser, and emitted light was collected between 510 and 550 nm. Alexa 568 was excited with the 568 nm line of a krypton ion laser, and emitted light was collected above 600 nm. […] To facilitate the analysis of fluorescence signal as a function of distance from the soma, dendrites were linearized and extracted from the full-frame image using a modified version of the Straighten plugin for ImageJ.
Dendrites were analyzed for time-lapse as follows: fluorescence was averaged across the width of linearized dendrites, generating a vector of mean pixel intensities equal to the length of the dendrite, ΔF/F (Ftn-Ft0/Ft0) was then computed at each pixel along the dendritic length. […]

In the case of biotin-puromycin, the IC50 with globin translation [1] is 54 µM.
Consider fluorescein-dC-puromycin [F2P], for which the “F2P reporter fluorescence in neurons” value in data set [2] (brief (˜15 min) bath application) is “fluorescence detected in both the cell body and the dendrites”. The “enhanced fluorescence relative to the F2A control molecule” value in the data set with 16610D9 thymocyte cells [3] (5 μM and 25 μM, live cell population) was “up to 4 fold”. Further, in the data set with 16610D9 thymocyte cells [3] (5 μM and 25 μM, F2P statement for 48 hours incubation), the “effect on cell viability” value is listed as “kills the majority of cells”. In addition, the “rank order of fluorescence enhancement” value with 16610D9 thymocyte cells [3] (setting [8]) is reported as “DMT-F2P-Me (12)>FB2P (1)˜BF2P (8)>F2P (4)˜F2P-Me (10)>FP”. In the data set with globin translation [4], the IC50 was found to be 22 µM.
In the case of `COc1ccc(C[C@H]2NC[C@H](O)[C@H]2OC(C)=O)cc1` [anisomycin], the “effect of co-application on basal F2P fluorescence in dendrites” value in data set [2] is given as “significantly attenuated”. For the same compound, the “effect on DHX-produced enhancement of F2P incorporation” value in data set [2] (preincubation and perfusion with anisomycin, p<0.01) is “completely blocked”. For the same compound, the “incorporation into cellular protein (anti-fluorescein Western signal)” value with 16610D9 thymocyte cells [5] is “essentially no signal”. For the same compound, the “effect on DHX-induced increase in mEPSC frequency” value with D1/D5 receptors is on record as “completely prevented”. Moreover, the “effect of co-application on the effects of SKF on GFP signal” value in the data set on dopamine D1/D5 receptor was “completely prevented”.
With Fluorescein-puromycin [FP], in the data set on 16610D9 thymocyte cells [3] (setting [8]), the “rank order of fluorescence enhancement” value was “DMT-F2P-Me (12)>FB2P (1)˜BF2P (8)>F2P (4)˜F2P-Me (10)>FP” and the “relative level of fluorescence enhancement” value is listed as “small fluorescence enhancement”. For the same compound, the IC50 in the data set with globin translation [1] is 120 µM.
In the case of biotin-dC-puromycin, in the data set with globin translation [1], the IC50 was 11 µM.
Turning to `Oc1cc2c(cc1O)[C@H]1c3ccccc3CN[C@@H]1CC2` (racemic) [DHX, dihydrexidine], in data set [2] (perfused 15 minutes on dendritic segment, p<0.05, n=8 dendrites), the “F2P incorporation in locally perfused dendrites compared to control dendrites” value is given as “significantly greater F2P incorporation”.
As for `COc1ccc(C[C@H](N)C(=O)N[C@H]2[C@@H](O)[C@H](n3cnc4c(N(C)C)ncnc43)O[C@@H]2CO)cc1` [puromycin, L-Puromycin hydrochloride], the “effect of co-application on basal F2P fluorescence in dendrites” value in data set [2] is reported as “significantly attenuated”. Besides, the “effect on MIG infected cells (killing)” value in data set [6] is “almost complete killing of both GFP-positive and GFP-negative cells”. The “GFP-positive cells in population after treatment” value in data set [7] came to 94%.
